Source: patent US20210024507A1, “Compounds” (Step Pharma S.A.S., priority 2018, published 2021)

Tested on: human CTPS1
Experiment: RapidFire/MS-based enzyme selectivity assay, human CTPS1
Format: biochemical
Settings: calculated from the CTPS1 and CTPS2 IC50 values
Procedure: The enzyme inhibitory activities against each target isoform of interest may be determined for the compounds of the invention using an optimised RapidFire high-throughput mass spectrometry (RF/MS) assay format. RF/MS assays for both human CTPS1 and CTPS2 may be performed in assay buffer consisting of 50mM HEPES (Merck), 20mM MgCl2, 5mM KCI, 1mM DTT, 0.01% Tween-20, pH to 8.0 accordingly. Human full-length active C-terminal FLAG-His-tag CTPS1 (UniProtKB - P17812, CTPS[1-591]-[…]) may be obtained from Proteros biostructures GmbH. Human full length active C-terminal FLAG-His-Avi tagged CTPS2 (UniProtKB-Q9NRF8, CTPS2 [1-586]- […]) may be obtained from Harker Bio.
Human CTPS (1 or 2) protein may be prepared in lx assay buffer to the final working protein concentration required for the reaction. A 2uL volume per well of 2× CTPS (1 or 2) protein may be mixed with 40nL of compound using acoustic (ECHO) delivery and incubated for 10 minutes at 25° C. Each isoform enzymatic reaction may be subsequently initiated by addition of 2uL per well of a 2× substrate mix in assay buffer. For hCTPS1: ATP (0.3mM), UTP (0.2mM), GTP (0.07mM) and L-glutamine (0.1mM). For hCTPS2: ATP (0.1mM), UTP (0.04mM), GTP (0.03mM) and L-glutamine (0.1mM). Each mixture may be incubated for an appropriate amount of time per isoform within the determined linear phase of the reaction at 25° C. A 60uL volume of stop solution (1% formic acid with 0.5uM ^13C9-^15N3-CTP in H2O) may be added and the plate immediately heat-sealed and centrifuged for 10 minutes at 4,000rpm. Following centrifugation, plates may be loaded onto the Agilent RapidFire microfluidic solid phase extraction system coupled to an AP14000 triple quadrupole mass spectrometer (RF/MS) for analysis.
In all cases, the enzyme converts UTP to CTP. Highly specific and sensitive multiple reaction monitoring (MRM) MS methods may be optimised for the detection of the enzymatic reaction product, CTP, and the stable isotope labelled product standard ^13C9-^15N3-CTP. Readout for data analysis may be calculated as the ratio between the peak area of the product CTP and the internal standard ^13C9-^15N3-CTP. For data reporting, the following equation may be used:
[formula] (R=ratio/readout, P=product signal area, IS=internal standard signal area)
For each screening plate, the means of the negative (DMSO) and positive control values were used for the calculation of the respective assay window (S/B) and Z′ values. The median of the respective control values was used for calculation of percent inhibition according to the following equation:
[formula] (I=Inhibition, Rneg=median of negative control readout values, Rpos=median of positive control readout values, Rsample=sample readout value)
Percentage inhibition was then plotted against compound concentration, and the 50% inhibitory concentration (IC50) was determined from the resultant concentration-response curve.
Fold selectivity between CTPS1 and CTPS2 was subsequently calculated according to the following equation: […]

SMILES | Selectivity (fold selectivity between CTPS1 and CTPS2)
CC(C)Oc1cncc(-c2ccc(NC(=O)Cc3ccnc(NS(=O)(=O)C4CC4)n3)cc2)n1 [P21, 2-(2-(cyclopropanesulfonamido)pyrimidin-4-yl)-N-(4-(6-isopropoxypyrazin-2-yl)phenyl)acetamide] | ++ (>30-60 fold (++))
CCOc1cncc(-c2ccc(NC(=O)C(C)(C)c3ccnc(NS(=O)(=O)C4CC4)n3)nc2)n1 [P31, 2-(2-(cyclopropanesulfonamido)pyrimidin-4-yl)-N-(5-(6-ethoxypyrazin-2-yl)pyridin-2-yl)-2-methylpropanamide] | +++ (>60 fold (+++))
CCOc1cncc(-c2ccc(NC(=O)C(C)(C)c3ccnc(NS(=O)(=O)C4CC4)n3)c(C#N)c2)n1 [P34, N-(2-cyano-4-(6-ethoxypyrazin-2-yl)phenyl)-2-(2-(cyclopropanesulfonamido)pyrimidin-4-yl)-2-methylpropanamide] | + (2-30 fold (+))
CCOc1cncc(-c2ccc(NC(=O)C(C)(C)c3ccnc(NS(=O)(=O)C4CC4)n3)c(F)c2)n1 [P38, 2-(2-(cyclopropanesulfonamido)pyrimidin-4-yl)-N-(4-(6-ethoxypyrazin-2-yl)-2-fluorophenyl)-2-methylpropanamide] | + (2-30 fold (+))
CC(C)Oc1cncc(-c2ccc(NC(=O)C(C)(C)c3ccnc(NS(=O)(=O)C4CC4)n3)c(F)c2)n1 [P39, 2-(2-(cyclopropanesulfonamido)pyrimidin-4-yl)-N-(2-fluoro-4-(6-isopropoxypyrazin-2-yl)phenyl)-2-methylpropanamide] | + (2-30 fold (+))
CC(C)(C(=O)Nc1ccc(-c2cccnc2)cc1)c1ccnc(NS(=O)(=O)C2CC2)n1 [P59, 2-(2-(cyclopropanesulfonamido)pyrimidin-4-yl)-2-methyl-N-(4-(pyridin-3-yl)phenyl)propanamide] | + (2-30 fold (+))
CCOc1cncc(-c2ccc(NC(=O)C(C)(C)c3ccnc(NS(=O)(=O)C4CC4)n3)cc2)n1 [P65, 2-(2-(cyclopropanesulfonamido)pyrimidin-4-yl)-N-(4-(6-ethoxypyrazin-2-yl)phenyl)-2-methylpropanamide] | ++ (>30-60 fold (++))
CCOc1cncc(-c2ccc(NC(=O)C(C)(C)c3nc(NS(=O)(=O)C4CC4)ncc3F)cc2)n1 [P68, 2-(2-(cyclopropanesulfonamido)-5-fluoropyrimidin-4-yl)-N-(4-(6-ethoxypyrazin-2-yl)phenyl)-2-methylpropanamide] | ++ (>30-60 fold (++))
CCOc1cncc(-c2ccc(NC(=O)C(C)(C)c3nc(NS(=O)(=O)C4CC4)ncc3C)cc2)n1 [P70, 2-(2-(cyclopropanesulfonamido)-5-methylpyrimidin-4-yl)-N-(4-(6-ethoxypyrazin-2-yl)phenyl)-2-methylpropanamide] | + (2-30 fold (+))
CCOc1cncc(-c2ccc(NC(=O)C(C)(C)c3ccnc(NS(=O)(=O)CC)n3)cc2)n1 [P74, N-(4-(6-ethoxypyrazin-2-yl)phenyl)-2-(2-(ethylsulfonamido)pyrimidin-4-yl)-2-methylpropanamide] | ++ (>30-60 fold (++))
CCOc1cncc(-c2ccc(NC(=O)C(C)(C)c3ccnc(NS(C)(=O)=O)n3)nc2)n1 [P76, N-(5-(6-ethoxypyrazin-2-yl)pyridin-2-yl)-2-methyl-2-(2-(methylsulfonamido)pyrimidin-4-yl)propanamide] | ++ (>30-60 fold (++))
CCOc1cncc(-c2ccc(NC(=O)C3(c4ccnc(NS(=O)(=O)C5CC5)n4)CC3)cc2)n1 [P83, 1-(2-(cyclopropanesulfonamido)pyrimidin-4-yl)-N-(4-(6-ethoxypyrazin-2-yl)phenyl)cyclopropanecarboxamide] | +++ (>60 fold (+++))
CCOc1cncc(-c2ccc(NC(=O)C3(c4ccnc(NS(=O)(=O)C5CC5)n4)CCOCC3)nc2)n1 [P115, 4-(2-(cyclopropanesulfonamido)pyrimidin-4-yl)-N-(5-(6-ethoxypyrazin-2-yl)pyridin-2-yl)tetrahydro-2H-pyran-4-carboxamide] | +++ (>60 fold (+++))
CCOc1cncc(-c2ccc(C(=O)NCc3ccnc(NS(=O)(=O)C4CC4)n3)cc2)n1 [P118, N-((2-(cyclopropanesulfonamido)pyrimidin-4-yl)methyl)-4-(6-ethoxypyrazin-2-yl)benzamide] | +++ (>60 fold (+++))
CC(C)(C(=O)Nc1ccc(-c2cncc(C3CC3)n2)cn1)c1ccnc(NS(=O)(=O)C2CC2)n1 [P125, 2-(2-(cyclopropanesulfonamido)pyrimidin-4-yl)-N-(5-(6-cyclopropylpyrazin-2-yl)pyridin-2-yl)-2-methylpropanamide] | ++ (>30-60 fold (++))
CCOc1cncc(-c2ccc(NC(=O)C3(c4ccnc(NS(=O)(=O)C5CC5)n4)CCCC3)nc2)n1 [P136, 1-(2-(cyclopropanesulfonamido)pyrimidin-4-yl)-N-(5-(6-ethoxypyrazin-2-yl)pyridin-2-yl)cyclopentane-1-carboxamide] | +++ (>60 fold (+++))
CCOc1cncc(-c2ccc(NC(=O)C3(c4ccnc(NS(=O)(=O)C5CC5)n4)CCOCC3)c(F)c2)n1 [P143, 4-(2-(cyclopropanesulfonamido)pyrimidin-4-yl)-N-(4-(6-ethoxypyrazin-2-yl)-2-fluorophenyl)tetrahydro-2H-pyran-4-carboxamide] | +++ (>60 fold (+++))
CCOc1cncc(-c2ccc(NC(=O)C(CCOC)c3ccnc(NS(=O)(=O)C4CC4)n3)nc2)n1 (stereo not shown) [P145, 2-(2-(cyclopropanesulfonamido)pyrimidin-4-yl)-N-(5-(6-ethoxypyrazin-2-yl)pyridin-2-yl)-4-methoxybutanamide] | +++ (>60 fold (+++))
CCOc1cncc(-c2ccc(NC(=O)C(CCOC)c3ccnc(NS(=O)(=O)C4CC4)n3)c(F)c2)n1 (stereo not shown) [P146, 2-(2-(cyclopropanesulfonamido)pyrimidin-4-yl)-N-(4-(6-ethoxypyrazin-2-yl)-2-fluorophenyl)-4-methoxybutanamide] | +++ (>60 fold (+++))
CCOc1cncc(-c2ccc(NC(=O)C(F)(CC)c3ccnc(NS(C)(=O)=O)n3)nc2)n1 (stereo not shown) [P151, N-(5-(6-ethoxypyrazin-2-yl)pyridin-2-yl)-2-fluoro-2-(2-(methylsulfonamido)pyrimidin-4-yl)butanamide] | +++ (>60 fold (+++))
CCOc1cncc(-c2ccc(NC(=O)C(OC)c3ccnc(NS(=O)(=O)C4CC4)n3)cc2)n1 (stereo not shown) [P164, 2-(2-(cyclopropanesulfonamido)pyrimidin-4-yl)-N-(4-(6-ethoxypyrazin-2-yl)phenyl)-2-methoxyacetamide] | + (2-30 fold (+))
CCOc1cncc(-c2ccc(NC(=O)C(C)(C)c3cncc(NS(=O)(=O)C4CC4)n3)nc2)n1 [P195, 2-(6-(cyclopropanesulfonamido)pyrazin-2-yl)-N-(5-(6-ethoxypyrazin-2-yl)pyridin-2-yl)-2-methylpropanamide] | +++ (>60 fold (+++))
CCOc1cncc(-c2ccc(NC(=O)C(C)(C)c3cncc(NS(=O)(=O)C4CC4)n3)cc2)n1 [P196, 2-(6-(cyclopropanesulfonamido)pyrazin-2-yl)-N-(4-(6-ethoxypyrazin-2-yl)phenyl)-2-methylpropanamide] | +++ (>60 fold (+++))
CCOc1cncc(-c2ccc(NC(=O)C3(c4cncc(NS(=O)(=O)C5CC5)n4)CCOCC3)nc2)n1 [P197, 4-(6-(cyclopropanesulfonamido)pyrazin-2-yl)-N-(5-(6-ethoxypyrazin-2-yl)pyridin-2-yl)tetrahydro-2H-pyran-4-carboxamide] | +++ (>60 fold (+++))
CC(C)Oc1cncc(-c2ccc(C(=O)NC(C)(C)c3cncc(NS(=O)(=O)C4CC4)n3)c(F)c2)n1 [P221, N-(2-(6-(cyclopropanesulfonamido)pyrazin-2-yl)propan-2-yl)-2-fluoro-4-(6-isopropoxypyrazin-2-yl)benzamide] | + (2-30 fold (+))
